Each structure is given as a SMILES string. ± gives the expanded uncertainty stated by the source.

Data on 7 compounds can be found in the NIST ThermoML archive (doi:10.1016/j.jct.2014.04.021).

The conditions of the data set: for mass density: 101.33 kPa, Liquid, Vibrating tube method; for Normal melting temperature: Crystal, DTA.

On to `CCCCCC[N+]1(C)CCCCC1.O=S(=O)([N-]S(=O)(=O)C(F)(F)F)C(F)(F)F`, for which the mass density is, setting by setting: (293 K) 1329.5 ± 1.1 kg/m3; (298.15 K) 1325.4 ± 1.1 kg/m3.
As to `CCCCn1cc[n+](C)c1.N#CC1=NC(C(F)(F)F)=NC1=C=[N-]`, the mass density (298.15 K) is listed as 1199.65 ± 1.5 kg/m3.
Take `C[n+]1ccn(CC#N)c1.N#Cc1nc(C(F)(F)F)[n-]c1C#N`: the Normal melting temperature was 92.7 ± 0.4 °C.
The same measure, in the same setting: then `CCCCCC[n+]1cccc2ccccc21.O=S(=O)([N-]S(=O)(=O)C(F)(F)F)C(F)(F)F` [1-hexylquinolinium bis(trifluoromethylsulfonyl)amide], with 45 ± 0.4 °C.
With `OC[C@@H](O)[C@@H](O)[C@H](O)[C@@H](O)CO` [D-sorbitol], the Normal melting temperature turned out to be 98.6 ± 0.4 °C.
With `CCCCCC[n+]1ccc2ccccc2c1.O=S(=O)([N-]S(=O)(=O)C(F)(F)F)C(F)(F)F` [N-hexylisoquinolinium bis(trifluoromethylsulfonyl)imide], the mass density (333.2 K) worked out at 1349.3 ± 1.8 kg/m3.
`OC[C@@H](O)[C@H](O)[C@@H](O)CO` [xylitol]: the Normal melting temperature came to 94.1 ± 0.4 °C.
